Data published in US20230000808A1, “COMPOSITIONS AND METHODS EXCLUDING OR WITH REDUCED GLUTAMINE FOR THE TREATMENT OF HEMOGLOBINOPATHIES AND THALASSEMIAS” (AXCELLA HEALTH INC., priority 2019, published 2023).

Columns and labels:
[1] = test system: RBCs of healthy whole blood; experiment: RBC deformability (Elongation Index, LORRCA ektacytometry), ex vivo TBHP oxidation of healthy whole blood; type: cell-based, human; conditions: healthy donor 2, single amino acid treatments
Description: Whole blood from healthy African American and/or Hispanic donors was obtained from Research Blood Components, LLC based on the following donor selection criteria: Adult age (between 18 and 50 years), normal BMI (<30), and absence of other confounding clinical conditions. Whole blood from SCD donors were obtained from BioIVT based on the following donor selection criteria: Patients with genotypes HbSS, HbSC, HbS/β^0 and at least 1-2 months gap since last blood transfusion. Whole blood was shipped on ice on the same day as blood draw. Upon receipt, the blood sample was aliquoted and stored in the refrigerator until used for studies.
RBC deformability measurements were conducted with the Laser Optical Rotational Red Cell Analyzer (LORRCA) from RR Mechatronics in a temperature-controlled environment (37° C.). Briefly, an even layer of RBCs suspended in polyvinylpyrrolidone (PVP) is subjected to shear stress gradient (0.3 to 30 Pa) through two concentric cylinders and the resulting changes in RBC shape or deformability are measured by a laser beam diffraction pattern. The captured images of RBC shape in response to increasing shear stress are then analyzed by the LORRCA program to calculate Elongation Index (EI).
Healthy RBCs have higher deformability ≥0.5 EI and SCD RBCs have lower deformability or EI values as studied by LORRCA ektacytometry in the field. […] The induced hemolysis model in this disclosure involves use of tert-butyl hydroperoxide (TBHP) to lower EI of RBCs.
The ex vivo hemolysis study disclosed here involves overnight treatment of whole blood with vehicle as a control and specific amino acids followed by rapid oxidation (5 min) with TBHP. Method for oxidation of whole blood with tert-butyl hydroperoxide has been used in prior literature (Diederich L, et al, Front Physiol. 2018 May 11; 9:332). RBC deformability or shape changes are then measured with LORRCA ektacytometry.
Whole blood aliquots stored in the fridge were brought up to room temperature while gently shaking on a rocker at low speed for an hour to ensure gradual and uniform suspension of red blood cells prior to deformability measurements. Vehicle control used in the study was 1× Dulbecco's […]) and amino acids disclosed herein were added (at either final 10× or 2.5 mM concentration as indicated) to corresponding vehicle and amino acid treatment conditions. The samples were then incubated overnight at 37° C. The next day, 25 μl of whole blood was taken from each treatment condition and added to 5 mL Elon ISO viscous solution from RR Mechatronics. The sample was inverted 15-20 times to ensure proper mixing of the treated RBCs with the Elon ISO solution followed by loading the sample on LORRCA and capturing RBC deformability or shape measurements over the applied shear gradient. The remaining whole blood treatments were returned to incubator (37° C.) until deformability measurements were completed for all treatments. To the remaining whole blood treatment samples, TBHP solution (5.0-6.0 M in Decane, Sigma) was added at 2.5 mM final concentration from a 100 mM freshly prepared stock and incubated for further 5 min at 37° C. 25 μl of this TBHP-treated sample was immediately removed at the end of the 5 min incubation and added to the Elon ISO solution for RBC deformability measurement after oxidation. Included in the Tables 13-15 are EI measurements at ½ EImax shear stress 1.69 Pa and EImax shear stress 30 Pa from these studies and FIG. 1 captures EI measurements for all shear stress points for the indicated treatment conditions.

[2] = test system: TNFα; experiment: LPS-induced TNF-α secretion in primary human monocyte-derived macrophages (ELISA); type: cell-based; conditions: LPS, baseline subtracted
Protocol: (§1) Primary human PMBC derived macrophages were seeded on day 0 at 3.0×10^4 cells per well in 96-well microplates (ThermoFisher) in Dulbecco's Modified Eagle Medium (DMEM) (Gibco) supplemented with penicillin-streptomycin (Hyclone) and 10% heat inactivated fetal bovine serum (HI-FBS) (Atlanta Bio) and incubated overnight at 37° C., 5% CO2. On day 1, cells were washed once with 150 μl per well DPBS (Gibco) and treated with 75 μl of: • a. […] The same medium described above with one amino acid at various concentrations including complete dropout. […] On day 3, the supernatant was collected and immediately frozen in −80° C. freezer. Cells were washed once with 150 μl DPBS and viability was assessed using the WST-8 Cell Proliferation Cytotoxicity Assay (Dojindo). […] Protein levels in supernatant samples were analyzed by ELISA for IL-6 and TNFα using commercially available kits (R&D Systems) according to manufacturer-supplied protocols.

[3] = test system: IL-6; experiment: LPS-induced IL-6 secretion in primary human monocyte-derived macrophages (ELISA); type: cell-based; conditions: for Donor 1 IL-6 Measurements Mean / Donor 2 IL-6 Measurements Mean / Donor 3 IL-6 Measurements Mean: LPS, baseline subtracted
Protocol: as §1

[4] = test system: HLMVEC; experiment: META-rank score, composite of VCAM1, ICAM1 and IL6 in the HLMVEC model; type: cell-based, human; conditions: HLMVEC + TNF-α; lower score = more optimal; 20x HMDB / 5 mM
Protocol: The ability of single amino acids and combinations to simultaneously impact these phenotypes was measured by a META-rank score (Tables 17 and 18). META-rank score is a composite measure that considers the optimal impact on all 3 phenotypes (e.g. decrease VCAM1, ICAM1, and IL6) in the HLMVEC model.

[5] = test system: IL-6; experiment: Secreted IL-6 in HLMVEC treated with TNF-α (FirePlex); type: cell-based, human; conditions: HLMVEC + 0.5 ng/mL TNF-α, 24 h; amino acids 20x HMDB, Nac/Cit/Car 5 mM as bracketed
Protocol: (§2) Primary Human Lung Microvascular Endothelial Cells (HLMVEC; Lonza) were seeded at 6,000 cells per well in Endothelial Cell Growth Basal Medium-2 (Lonza) supplemented with Fetal Bovine Serum (FBS; Lonza), human EGF (Lonza), human VEGF (Lonza), R3-Insulin-like Growth Factor-1 (Lonza), ascorbic acid (Lonza), hydrocortisone (Lonza), human FGF-beta (Lonza), and gentamicin/amphotericin-b (Lonza) in a 96-well plate (Thermo Fisher). The cells were incubated for 45 minutes at room temperature, then incubated overnight at 37° C./5% CO2.
(§3) Following overnight incubation, cell were washed once with 150 μL of Dulbecco's phosphate buffered saline (DPBS; Gibco), and then treated with Endothelial Basal Medium MCB-131 (amino acid, glucose, sodium pyruvate, and phenol red free; US Biologicals) containing a defined custom amino acid concentration based on physiological concentrations in blood of patients with SCD (thus recapitulating observed metabolic imbalances such as the depletion of certain essential amino acids including arginine and aspartate and enrichment of certain non-essential amino acids including glutamate and asparagine), dialyzed FBS (Hyclone), human EGF (Lonza), human VEGF (Lonza), R3-Insulin-like Growth Factor-1 (Lonza), ascorbic acid (Lonza), hydrocortisone (Lonza), human FGF-beta (Lonza), and gentamicin/amphotericin-b (Lonza), glucose, 10 mM HEPES, sodium pyruvate, and sodium bicarbonate supplemented with one of the following: • a. PBS (vehicle control), • b. 0.5 ng/mL Tumor Necrosis Factor alpha (TNFα) and PBS, or; • c. 0.5 ng/mL TNF-α and amino acid treatments at 20× mean physiological concentrations in plasma based on values published in the Human Metabolome Database (HMDB) in PBS.
Supernatants were analyzed for IL-6 concentrations using a Human Cytokines FirePlex-HT Panel 1 kit (abcam) according to the manufacturer-supplied instructions. Particles were imaged on a high content imager (Molecular Devices), and results were interpolated from a standard curve with FirePlex Analysis Workbench Software (abcam) according manufacturer's recommendations.

[6] = test system: VCAM-1; experiment: VCAM-1 cell integrated intensity in HLMVEC treated with TNF-α (immunofluorescence); type: cell-based, human; conditions: for VCAM-1 Cell Integrated Intensity Median: HLMVEC + 0.5 ng/mL TNF-α, 24 h, amino acids 20x HMDB, Nac/Cit/Car 5 mM as bracketed
Protocol: as §2, §3
(§4) After 24 hours of treatment, cells were washed once with 150 μL of DPBS (Gibco), then fixed with 4% paraformaldehyde. Following fixation, cells were stained with anti-ICAM-1 [MEM-111] (mouse IgG2a anti-human; abcam) and anti-VCAM1 [1.4C3] (mouse IgG1, K anti-human; abcam) primary antibodies at 1000×, and 100× dilutions respectively. Cells were then stained with Goat anti-Mouse IgG2a Cross-Adsorbed Secondary Antibody, Alexa Fluor 594 (Invitrogen) and Goat anti-Mouse IgG1 Cross-Adsorbed Secondary Antibody, Alexa Fluor 647 (Invitrogen) secondary antibodies. Nuclei were stained with Hoechst 3342 (Life Technologies).
(§5) Antibody binding was detected by fluorescence microscopy using a high content imager (Molecular Devices). Images were analyzed using MetaXpress 6 software to determine the integrated intensity per cell for each wavelength corresponding to ICAM-1 or VCAM-1.

[7] = test system: ICAM-1; experiment: ICAM-1 cell integrated intensity in HLMVEC treated with TNF-α (immunofluorescence); type: cell-based, human; conditions: HLMVEC + 0.5 ng/mL TNF-α, 24 h; amino acids 20x HMDB, Nac/Cit/Car 5 mM as bracketed
Protocol: as §2, §3, §4, §5

[8] = Donor 1, Conc. 109 μM (baseline)

SMILES: N=C(N)NCCC[C@H](N)C(=O)O [Arginine]
- EI over vehicle control, both ½ EImax and EImax [1]: higher than the vehicle
- TNF-α Measurements Mean [2, 8]: 0
- TNF-α Measurements Mean ([2]; Donor 1, Conc. 1088 μM): −24.33
- TNF-α Measurements Mean ([2]; Donor 1, Conc. 2720 μM): 5.12
- TNF-α Measurements Mean ([2]; Donor 1, Conc. 5440 μM): 62.06
- TNF-α Measurements Mean ([2]; Donor 2, Conc. 109 μM (baseline)): 1.42E−14
- TNF-α Measurements Mean ([2]; Donor 2, Conc. 1088 μM): −12.7222
- TNF-α Measurements Mean ([2]; Donor 2, Conc. 2720 μM): −3.763
- TNF-α Measurements Mean ([2]; Donor 2, Conc. 5440 μM): −0.5738
- TNF-α Measurements Mean ([2]; Donor 3, Conc. 109 μM (baseline)): 3.55E−15
- TNF-α Measurements Mean ([2]; Donor 3, Conc. 1088 μM): 3.131
- TNF-α Measurements Mean ([2]; Donor 3, Conc. 2720 μM): −0.9669
- TNF-α Measurements Mean ([2]; Donor 3, Conc. 5440 μM): −1.767
- Donor 1 IL-6 Measurements Mean [3, 8]: 0
- Donor 1 IL-6 Measurements Mean ([3]; Donor 1, Conc. 1088 μM): −181.36
- Donor 1 IL-6 Measurements Mean ([3]; Donor 1, Conc. 2720 μM): −186.57
- Donor 1 IL-6 Measurements Mean ([3]; Donor 1, Conc. 5440 μM): 357.4394
- effect on LPS-induced IL-6 secretion ([3]; Donor 1, Two Way ANOVA Dunnett): increased
- Donor 2 IL-6 Measurements Mean ([3]; Conc. 109 μM (baseline)): 2.37E−15
- Donor 2 IL-6 Measurements Mean ([3]; Conc. 1088 μM): −9.701
- Donor 2 IL-6 Measurements Mean ([3]; Conc. 2720 μM): −13.6102
- Donor 2 IL-6 Measurements Mean ([3]; Conc. 5440 μM): −12.4164
- Donor 3 IL-6 Measurements Mean ([3]; Conc. 109 μM (baseline)): 0
- Donor 3 IL-6 Measurements Mean ([3]; Conc. 1088 μM): 31.5786
- Donor 3 IL-6 Measurements Mean ([3]; Conc. 2720 μM): −7.503
- Donor 3 IL-6 Measurements Mean ([3]; Conc. 5440 μM): −6.81

SMILES: NC(=O)NCCC[C@H](N)C(=O)O [Cit, citrulline]
- Meta-Rank (Table 18) [4]: 8
- Metarank (Table 17) [4]: 16
- Secreted IL6 Median [5]: −0.270
- EI over vehicle control, both ½ EImax and EImax [1]: higher than the vehicle
- VCAM-1 expression in HLMVEC ([6]; 0.5 ng/mL TNF-α, amino acids at 20× HMDB, 24 hours): moderate effect
- VCAM-1 Cell Integrated Intensity Median [6]: −0.157
- ICAM-1 Cell Integrated Intensity Median [7]: −0.118

SMILES: NCCC[C@H](N)C(=O)O [Orn]
- Meta-Rank (Table 18) [4]: 6.5
- Metarank (Table 17) [4]: 11
- Secreted IL6 Median [5]: −0.378
- VCAM-1 Cell Integrated Intensity Median [6]: −0.196
- ICAM-1 Cell Integrated Intensity Median [7]: −0.197

SMILES: N[C@@H](CO)C(=O)O [Ser]
- Meta-Rank (Table 18) [4]: 19
- Metarank (Table 17) [4]: 23
- Secreted IL6 Median [5]: −0.153
- VCAM-1 Cell Integrated Intensity Median [6]: 0.139
- ICAM-1 Cell Integrated Intensity Median [7]: 0.076

SMILES: N[C@@H](Cc1c[nH]c2ccccc12)C(=O)O [Trp]
- Meta-Rank (Table 18) [4]: 24
- Metarank (Table 17) [4]: 12
- Secreted IL6 Median [5]: −0.357
- VCAM-1 Cell Integrated Intensity Median [6]: 0.162
- ICAM-1 Cell Integrated Intensity Median [7]: 0.171

SMILES: CC(C)[C@H](N)C(=O)O [Val]
- Meta-Rank (Table 18) [4]: 25.5
- Metarank (Table 17) [4]: 18
- Secreted IL6 Median [5]: −0.224
- VCAM-1 Cell Integrated Intensity Median [6]: 0.315
- ICAM-1 Cell Integrated Intensity Median [7]: 0.167
